Experimental data published in ChEMBL document CHEMBL3638977, “Heteroaryl sodium channel inhibitors” (2015).
pIC50: −log10 of the molar value.

biological target: Sodium channel protein type 9 subunit alpha (Homo sapiens, UniProt Q15858); experiment: In Vitro Assay: 293 cells stably transfected with either Nav 1.7 or with Nav 1.5 were recorded in population patch-clamp mode with the IonWorks® Quattro automated electrophysiology system in accordance with the manufacturer's specifications (Molecular Devices, LLC, Sunnyvale, Calif.). Sodium channel currents were measured in response to a train of depolarizations that induced successively greater inactivation.Cells were held at −110 mV for three seconds (Nav 1.7) or half a second (Nav 1.5) from a holding voltage of −15 mV, then put through a series of 26 pulses of 150 msec duration to −20 mV at a frequency of 5 Hz. Cells were then left unclamped for a period of 3 to 8 minutes while a single concentration of test compound was added. Cells were then reclamped and put through the same voltage protocol. Current at the end of the 26th pulse to −20 mV was subtracted from the peak current evoked by the 26th pulse to −20 mV to correct for leak current.; assay type: cell-based
Sequence (Q15858 whole entry): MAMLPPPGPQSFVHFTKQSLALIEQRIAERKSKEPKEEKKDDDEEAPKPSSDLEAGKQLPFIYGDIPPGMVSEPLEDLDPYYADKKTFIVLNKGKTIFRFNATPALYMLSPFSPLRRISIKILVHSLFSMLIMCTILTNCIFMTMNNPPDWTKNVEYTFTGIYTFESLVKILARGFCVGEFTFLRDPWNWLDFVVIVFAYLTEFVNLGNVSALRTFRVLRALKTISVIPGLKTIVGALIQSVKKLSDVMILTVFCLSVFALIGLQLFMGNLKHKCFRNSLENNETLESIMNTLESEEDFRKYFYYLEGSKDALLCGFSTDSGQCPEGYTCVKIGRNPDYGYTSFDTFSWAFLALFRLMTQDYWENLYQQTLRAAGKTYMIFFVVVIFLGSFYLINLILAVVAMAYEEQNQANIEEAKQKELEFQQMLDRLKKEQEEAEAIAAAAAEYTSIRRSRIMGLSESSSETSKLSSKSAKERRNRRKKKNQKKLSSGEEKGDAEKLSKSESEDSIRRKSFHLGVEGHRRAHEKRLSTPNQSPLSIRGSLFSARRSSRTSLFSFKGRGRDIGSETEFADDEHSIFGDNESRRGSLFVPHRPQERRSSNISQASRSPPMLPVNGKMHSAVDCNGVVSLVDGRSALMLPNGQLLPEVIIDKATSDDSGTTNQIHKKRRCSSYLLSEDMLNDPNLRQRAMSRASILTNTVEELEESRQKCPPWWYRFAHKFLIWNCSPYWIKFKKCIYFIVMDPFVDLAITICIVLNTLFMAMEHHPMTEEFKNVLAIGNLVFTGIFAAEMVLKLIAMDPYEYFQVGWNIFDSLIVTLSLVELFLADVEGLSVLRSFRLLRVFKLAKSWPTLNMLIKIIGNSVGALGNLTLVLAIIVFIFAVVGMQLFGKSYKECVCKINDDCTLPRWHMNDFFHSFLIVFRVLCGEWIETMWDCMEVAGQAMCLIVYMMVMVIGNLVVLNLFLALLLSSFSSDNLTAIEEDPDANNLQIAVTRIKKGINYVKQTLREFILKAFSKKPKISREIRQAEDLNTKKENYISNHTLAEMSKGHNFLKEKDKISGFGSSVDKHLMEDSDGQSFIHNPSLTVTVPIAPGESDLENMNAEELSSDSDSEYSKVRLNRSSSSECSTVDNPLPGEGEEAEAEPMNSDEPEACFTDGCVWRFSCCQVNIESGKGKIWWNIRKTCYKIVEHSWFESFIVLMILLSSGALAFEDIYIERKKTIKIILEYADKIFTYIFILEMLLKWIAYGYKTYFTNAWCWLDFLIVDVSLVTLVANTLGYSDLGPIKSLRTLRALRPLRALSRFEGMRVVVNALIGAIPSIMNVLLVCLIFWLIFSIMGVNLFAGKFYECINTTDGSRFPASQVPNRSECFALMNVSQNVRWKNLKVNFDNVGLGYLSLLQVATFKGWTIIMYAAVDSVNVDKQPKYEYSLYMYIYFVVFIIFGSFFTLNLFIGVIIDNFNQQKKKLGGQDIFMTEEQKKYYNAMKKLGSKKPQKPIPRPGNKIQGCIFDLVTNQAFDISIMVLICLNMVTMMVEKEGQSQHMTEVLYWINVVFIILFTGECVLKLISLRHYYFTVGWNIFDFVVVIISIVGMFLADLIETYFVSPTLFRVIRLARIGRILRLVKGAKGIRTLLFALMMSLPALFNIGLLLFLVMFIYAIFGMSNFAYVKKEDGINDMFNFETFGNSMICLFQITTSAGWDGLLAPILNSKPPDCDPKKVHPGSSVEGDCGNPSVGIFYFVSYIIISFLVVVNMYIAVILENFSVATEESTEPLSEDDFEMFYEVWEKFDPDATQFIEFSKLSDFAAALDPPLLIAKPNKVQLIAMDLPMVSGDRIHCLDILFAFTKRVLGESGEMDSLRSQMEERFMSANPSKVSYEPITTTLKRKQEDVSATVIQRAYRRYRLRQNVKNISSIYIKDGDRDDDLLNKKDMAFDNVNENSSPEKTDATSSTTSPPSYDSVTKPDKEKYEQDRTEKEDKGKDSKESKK

How did the pIC50 turn out when `Cn1cc(-c2ccccc2)c2ccc(S(=O)(=O)Nc3ncns3)cc21` was run?
Its pIC50 is 5.81.

With `Cc1cc(C#N)ccc1-c1cn(C)c2cc(S(=O)(=O)Nc3ncns3)ccc12` as the compound, how does the pIC50 read?
The pIC50 was 5.63.

How did the pIC50 turn out when `Cn1cc(-c2cccc(S(C)(=O)=O)c2)c2ccc(S(=O)(=O)Nc3ncns3)cc21` was run?
Its pIC50 is 6.28.

How did the pIC50 turn out when `Cn1cc(-c2ccc(OC(F)(F)F)cc2)c2ccc(S(=O)(=O)Nc3ncns3)cc21` was run?
Its pIC50 is 5.33.

How did the pIC50 turn out when `COc1ccc(-c2cn(C)c3cc(S(=O)(=O)Nc4ncns4)ccc23)c(Cl)c1` was run?
Its pIC50 is 5.64.

How did the pIC50 turn out when `Cn1cc(-c2ccc(C#N)c(F)c2)c2ccc(S(=O)(=O)Nc3ncns3)cc21` was run?
Its pIC50 is 5.51.

With `Cn1cc(-c2ccc(F)c(C#N)c2)c2ccc(S(=O)(=O)Nc3ncns3)cc21` as the compound, how does the pIC50 read?
Its pIC50 is 5.89.

With `Cn1nccc1-c1cn(C)c2cc(S(=O)(=O)Nc3ncns3)ccc12` as the compound, how does the pIC50 read?
Its pIC50 is 5.15.

With `Cn1cc(-c2ccccc2C(F)(F)F)c2ccc(S(=O)(=O)Nc3ncns3)cc21` as the compound, how does the pIC50 read?
The pIC50 was 5.22.

How did the pIC50 turn out when `Cc1cnc(N)c(-c2cn(C)c3cc(S(=O)(=O)Nc4ncns4)ccc23)c1` was run?
Its pIC50 is 5.23.

`Cn1cc(-c2ccc(C(F)(F)F)c(Cl)c2)c2ccc(S(=O)(=O)Nc3ncns3)cc21` was tested. Which pIC50 did it give?
The pIC50 was 5.50.

With `Cc1noc(C)c1-c1cn(C)c2cc(S(=O)(=O)Nc3ncns3)ccc12` as the compound, how does the pIC50 read?
The pIC50 was 5.58.

How did the pIC50 turn out when `CN(C)c1cccc(-c2cn(C)c3cc(S(=O)(=O)Nc4ncns4)ccc23)c1` was run?
The pIC50 was 5.38.

`COc1ccc(-c2cn(C)c3cc(S(=O)(=O)Nc4ncns4)ccc23)cc1C(F)(F)F` was tested. Which pIC50 did it give?
The pIC50 was 5.35.

With `Cn1cc(-c2cccc(OC(F)(F)F)c2)c2ccc(S(=O)(=O)Nc3ncns3)cc21` as the compound, how does the pIC50 read?
Its pIC50 is 6.06.

With `COc1ccc(-c2cn(C)c3cc(S(=O)(=O)Nc4ncns4)ccc23)c2ccccc12` as the compound, how does the pIC50 read?
The pIC50 was 5.58.

How did the pIC50 turn out when `Cn1cc(-c2cccc3ccccc23)c2ccc(S(=O)(=O)Nc3ncns3)cc21` was run?
Its pIC50 is 6.51.

`Cn1cc(-c2ccc(Br)cc2C(F)(F)F)c2ccc(S(=O)(=O)Nc3ncns3)cc21` was tested. Which pIC50 did it give?
The pIC50 was 5.45.

`COc1cc(OC)cc(-c2cn(C)c3cc(S(=O)(=O)Nc4ncns4)ccc23)c1` was tested. Which pIC50 did it give?
The pIC50 was 5.22.

With `COc1ccc(-c2cn(C)c3cc(S(=O)(=O)Nc4ncns4)ccc23)c(OC)c1` as the compound, how does the pIC50 read?
Its pIC50 is 6.04.

`Cn1cc(-c2cccc(C#N)c2)c2ccc(S(=O)(=O)Nc3ncns3)cc21` was tested. Which pIC50 did it give?
Its pIC50 is 5.70.

How did the pIC50 turn out when `Cn1cc(-c2cccc(C(F)(F)F)c2)c2ccc(S(=O)(=O)Nc3ncns3)cc21` was run?
The pIC50 was 5.42.

With `Cn1cc(-c2cccc3ncccc23)c2ccc(S(=O)(=O)Nc3ncns3)cc21` as the compound, how does the pIC50 read?
Its pIC50 is 6.18.

With `COc1cc(F)ccc1-c1cn(C)c2cc(S(=O)(=O)Nc3ncns3)ccc12` as the compound, how does the pIC50 read?
The pIC50 was 6.47.
